What was measured:
Format in all cases: functional
[1] = test system: Saccharomyces cerevisiae; experiment: Percent inhibitory activity of 50 uM of compound against growth of Saccharomyces cerevisiae transfected with human topoisomerase-1 in medium containing galactose
[2] = test system: Saccharomyces cerevisiae; experiment: Percent inhibitory activity of 50 uM of compound against growth of Saccharomyces cerevisiae transfected with human topoisomerase-1 in medium containing raffinose
[3] = test system: Saccharomyces cerevisiae; experiment: Percent inhibitory activity of 100 uM of compound against growth of Saccharomyces cerevisiae transfected with human topoisomerase-1 in medium containing galactose
[4] = test system: Saccharomyces cerevisiae; experiment: Percent inhibitory activity of 100 uM of compound against growth of Saccharomyces cerevisiae transfected with human topoisomerase-1 in medium containing raffinose
[5] = test system: Saccharomyces cerevisiae; experiment: Percent inhibitory activity of 0.5 uM of compound against growth of Saccharomyces cerevisiae transfected with human topoisomerase-1 in medium containing galactose
[6] = test system: Saccharomyces cerevisiae; experiment: Percent inhibitory activity of 0.5 uM of compound against growth of Saccharomyces cerevisiae transfected with human topoisomerase-1 in medium containing raffinose
[7] = test system: Saccharomyces cerevisiae; experiment: Percent inhibitory activity of 1 uM of compound against growth of Saccharomyces cerevisiae transfected with human topoisomerase-1 in medium containing galactose
[8] = test system: Saccharomyces cerevisiae; experiment: Percent inhibitory activity of 1 uM of compound against growth of Saccharomyces cerevisiae transfected with human topoisomerase-1 in medium containing raffinose
[9] = test system: Saccharomyces cerevisiae; experiment: Percent inhibitory activity of 10 uM of compound against growth of Saccharomyces cerevisiae transfected with human topoisomerase-1 in medium containing galactose
[10] = test system: Saccharomyces cerevisiae; experiment: Percent inhibitory activity of 10 uM of compound against growth of Saccharomyces cerevisiae transfected with human topoisomerase-1 in medium containing raffinose
[11] = test system: Saccharomyces cerevisiae; experiment: Percent inhibitory activity of 15 uM of compound against growth of Saccharomyces cerevisiae transfected with human topoisomerase-1 in medium containing galactose
[12] = test system: Saccharomyces cerevisiae; experiment: Percent inhibitory activity of 15 uM of compound against growth of Saccharomyces cerevisiae transfected with human topoisomerase-1 in medium containing raffinose
[13] = test system: Saccharomyces cerevisiae; experiment: Percent inhibitory activity of 0.75 uM of compound against growth of Saccharomyces cerevisiae transfected with human topoisomerase-1 in medium containing galactose
[14] = test system: Saccharomyces cerevisiae; experiment: Percent inhibitory activity of 0.75 uM of compound against growth of Saccharomyces cerevisiae transfected with human topoisomerase-1 in medium containing raffinose
[15] = test system: Saccharomyces cerevisiae; experiment: Percent inhibitory activity of 1.5 uM of compound against growth of Saccharomyces cerevisiae transfected with human topoisomerase-1 in medium containing galactose
[16] = test system: Saccharomyces cerevisiae; experiment: Percent inhibitory activity of 1.5 uM of compound against growth of Saccharomyces cerevisiae transfected with human topoisomerase-1 in medium containing raffinose
[17] = test system: Saccharomyces cerevisiae; experiment: Percent inhibitory activity of 25 uM of compound against growth of Saccharomyces cerevisiae transfected with human topoisomerase-1 in medium containing galactose
[18] = test system: Saccharomyces cerevisiae; experiment: Percent inhibitory activity of 25 uM of compound against growth of Saccharomyces cerevisiae transfected with human topoisomerase-1 in medium containing raffinose
[19] = test system: Saccharomyces cerevisiae; experiment: Percent inhibitory activity of 5 uM of compound against growth of Saccharomyces cerevisiae transfected with human topoisomerase-1 in medium containing galactose
[20] = test system: Saccharomyces cerevisiae; experiment: Percent inhibitory activity of 5 uM of compound against growth of Saccharomyces cerevisiae transfected with human topoisomerase-1 in medium containing raffinose

Row | SMILES | Inhibition [1] | Inhibition [2] | Inhibition [7] | Inhibition [8] | Inhibition [9] | Inhibition [10] | also measured
1 | O=c1c2c(nc3n1Cc1cc4ccccc4nc1-3)CCCC2 | 46% | 3% |  |  |  |  | Inhibition [3]: 51%; Inhibition [4]: 18%
2 | O=c1c2ccccc2nc2n1Cc1cc3ccccc3nc1-2 [LUOTONIN A] |  |  | 36% | 0% | 56% | 35% | Inhibition [5]: 23%; Inhibition [6]: 0%
3 | O=c1c2cc(F)c(F)cc2nc2n1Cc1cc3ccccc3nc1-2 |  |  | 0% | 26% | 0% | 53% | 
4 | CC[C@@]1(O)C(=O)OCc2c1cc1n(c2=O)Cc2cc3ccccc3nc2-1 [CAMPTOTHECIN] |  |  |  |  |  |  | Inhibition [11]: 78%; Inhibition [12]: 18%; Inhibition [13]: 40%; Inhibition [14]: 10%; Inhibition [15]: 68%; Inhibition [16]: 19%
5 | Cc1ccc2nc3n(c(=O)c2c1)Cc1cc2ccccc2nc1-3 |  |  | 14% | 8% | 49% | 39% | 
6 | O=c1c2ccc(F)cc2nc2n1Cc1cc3ccccc3nc1-2 | 73% | 14% |  |  |  |  | Inhibition [17]: 40%; Inhibition [18]: 0%
7 | COc1cccc2c(=O)n3c(nc12)-c1nc2ccccc2cc1C3 [16-METHOXYLUOTONIN A] |  |  |  |  |  |  | Inhibition [17]: 2%; Inhibition [19]: 0%; Inhibition [20]: 35%; Inhibition [18]: 47%
8 | O=c1c2cccc(O)c2nc2n1Cc1cc3ccccc3nc1-2 | 9% | 0% |  |  |  |  | Inhibition [3]: 13%; Inhibition [4]: 7%
